Assay results as given in PubChem BioAssay (NCI).
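Each compound was tested at five concentrations against cells in 96-well plates for 48 hours. TGI is the concentration that stops growth completely.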

How the values were obtained:
Experiment in all cases: growth of human tumour cells (NCI), 48 h
[1] = tested on: SF-268 CNS
[2] = tested on: LOX IMVI melanoma
[3] = tested on: EKVX NSCLC
[4] = tested on: NCI-H23 lung
[5] = tested on: COLO 205 colon
[6] = tested on: HCT-116 colon
[7] = tested on: KM12 colon
[8] = tested on: SF-295 CNS
[9] = tested on: DMS 114 small cell lung
[10] = tested on: SW-620 colon
[11] = tested on: SK-MEL-5 melanoma
[12] = tested on: MOLT-4 leukemia
[13] = tested on: UACC-257 melanoma
[14] = tested on: U251 CNS
[15] = tested on: MALME-3M melanoma
[16] = tested on: RXF 393 renal
[17] = tested on: OVCAR-8 ovarian
[18] = tested on: A549 NSCLC
[19] = tested on: TK-10 renal
[20] = tested on: HS 578T breast

SMILES	TGI [1] [µM]	TGI [2] [µM]	TGI [3] [µM]	TGI [4] [µM]	TGI [5] [µM]	TGI [6] [µM]	TGI [7] [µM]	TGI [8] [µM]	TGI [9] [µM]	TGI [10] [µM]	TGI [11] [µM]	TGI [12] [µM]	TGI [13] [µM]	TGI [14] [µM]	TGI [15] [µM]	TGI [16] [µM]	TGI [17] [µM]	TGI [18] [µM]	TGI [19] [µM]	TGI [20] [µM]
CCCn1cc2c(=O)[nH]c(SC)nc2n1	> 100	> 100	> 100	> 100	> 100	> 100	> 100	> 100	> 100	> 100	> 100	> 100	> 100	> 100	> 100	> 100	> 100	> 100	> 100	–
Cc1cn(C2CC(n3cc(Cn4ccc(=O)[nH]c4=O)nn3)C(CO)O2)c(=O)[nH]c1=O (centres undefined)	> 100	–	–	> 100	> 100	> 100	> 100	> 100	–	> 100	> 100	> 100	> 100	> 100	–	> 100	> 100	> 100	> 100	> 100
CN(C)Cc1cc(Cl)c(O)c(CN(C)C)c1	> 100	> 100	> 100	> 100	> 100	> 100	> 100	> 100	–	> 100	> 100	–	> 100	> 100	> 100	> 100	> 100	> 100	> 100	> 100
Cc1ncn(-c2ccccc2O)c1C	> 100	> 100	> 100	> 100	> 100	> 100	> 100	> 100	–	> 100	> 100	> 100	> 100	> 100	> 100	> 100	> 100	> 100	> 100	> 100
C=C(/C=C/C=C(\C)CCC=C(C)C)[C@@H]1CC[C@]2([C@H](CCCO)/C(=C(/C)C=O)CC[C@]2(C)O)[C@@H]1O	41.8	31.9	44.1	45.7	26	–	15.4	44	–	40.7	53.1	29.3	59.5	28.5	29.8	37.8	46.5	38.2	66.2	–
O=C1c2ccccc2N(O)C1(c1ccccc1)C1CCCC=C1N1CCOCC1 (centres undefined)	> 100	> 100	> 100	> 100	> 100	> 100	–	> 100	> 100	> 100	> 100	> 100	> 100	> 100	–	> 100	> 100	> 100	> 100	–
CC(C)(C)c1ccc2c(c1)OP1(Oc3c(Cl)cc(Cl)c4cccnc34)(O2)Oc2ccc(C(C)(C)C)cc2O1	24.7	19.2	> 35.7	21.8	31.3	17.4	20.4	32.1	9.57	23.5	22.1	18.7	14.2	15.9	24.9	30	45.8	34.6	–	–
